From patent publication US4695576A, “L-N-n-propylpipecolic acid-2,6-xylidide” (priority 1985, dated 1987)
“Also recorded” adds a separate entry of the source.

What was measured:
conscious rats = experiment: Heart-toxicity in conscious rats (ECG); format: in vivo, Male Sprague Dawley rats
Method: Male Sprague Dawley rats weighing 290-360 grams were prepared with intravenous catheters under local anesthesia using prilocaine (Citanest*) one hour before experiments. Rapid intravenous bolus injections over 5.0 seconds were given to groups of 8 rats, with a single injection to each animal. […] The ECG was recorded on a Mingograf 34. Convulsions were recorded manually with an electronic marker on one channel of the Mingograf. Only "primary" arrhythmias occurring during the first 60 seconds have been analyzed to avoid confusion with late arrhythmias occurring secondary to respiratory arrest or cardiovascular collapse.

[1] = molecular target: T1, guinea-pig papillary muscle sodium channels (Cavia porcellus, UniProt H0V4Z8); experiment: Action on guinea-pig papillary muscle sodium channels (Vmax, recovery from block); format: cell-based; conditions: for recovery to 90% of drug-blocked channels: -90 mV; for recovery from block: especially at hyperpolarized levels (-100--120 mV)
T1 construct: Vmax of action potential as measure of sodium current
Source text: Depression of cardiac conduction appears to be one of the primary mechanisms underlying local anesthetic cardiotoxicity. Depression of conduction by local anesthetics in both nerve and cardiac tissue results from a block of sodium channels. Furthermore, the degree of sodium channel block by local anesthetics is dependent upon the state of the sodium channel. […] Consequently, a block of sodium channels develops during the upstroke and plateau of the action potential and dissipates during the diastolic interval between beats. Since the effect of a local anesthetic is both state and time dependent, changes in both heart rate and diastolic membrane potential may alter drug action substantially.
(§1) Guinea pig papillary tests were carried out according to the recommendation of the "Report of the Subcommittee on Cardiotoxicity of Local Anesthetics" (Leroy D. Vandam, M.D., chairman). Guinea pig papillary muscle excised from the right ventricle were mounted in a single sucrose gap apparatus (Arlock & Katzune, 1985). Solutions maintained at 37° C.±0.5° continuously perfused the gap compartments. The rear chamber contained isotonic potassium chloride solution. The drugs were added to a Tris-Tyrode solution passing the tip of the muscle. The Tris-Tyrode solution contained (mM): NaCl, 145; KCl, 4; CaCl2, 1.2; MgCl2, 1.05; glucose, 5.5 Tris maleate, 5. It was adjusted to pH 7.4 with trismaleate and HCl before use and gassed with 100% oxygen. Isotonic sucrose solution isolated the rear from the tip to enable current- and voltage-clamping.
The muscles were depolarized with long current pulses (1500 msec). These current steps can induce automaticity or DIA (depolarization induced automaticity). The steps were adjusted so the preparations were depolarized to from -50 to -30 mV since that is in that range that calcium current conductance is initiated.
The results represent the mean from representative experiments. In the absence of drug, Vmax (maximum upstroke velocity of the action potential) recovers from inactivation with an exponential time constant of less that 30 msec at -90 mV (Gettes and Reuter, 1974). […] The time constant of this recovery process is different for channels blocked by different drugs.

[2] = background statement; cited from earlier work
[3] = tested on: peripheral nerve endings of the epidermis; experiment: Intracutaneous wheals, infiltration anesthesia on forearms of man; format: in vivo; conditions: Conc. 0.25%; 12 healthy volunteers, pinprick
Source text: By use of intracutaneous wheals it is possible to measure the analgesic effect of an anesthetic on the peripheral nerve endings of the epidermis.
This technique gives information about:
(1) The duration of anesthesia.
^1 Infiltration anesthesia on forearms of man. The test solutions wer
injected intracutaneously on the dorsum of the forearms of 12 healthy
volunteers, 20-25 years old. Three wheals were made on each arm in a
rotating system in a doublebind fashion. The local anesthetic effect was
tested using a pinprick technique. The "duration of anesthesia" was
defined as the time during which none out of six pinpricks into the wheal
was felt. The method has been described by Dhuner et al. (1972). […]

ulnar volar nerves = experiment: Finger blockade, digital nerve blocks in man; format: in vivo; conditions: for Time of onset, finger blockade: time from injection to complete analgesia
Method: ^2 Digital nerve blocks in man. The test solutions were injected to
block the ulnar volar nerves on the 2nd and 4th fingers of the same
volunteers who had participated in the intracutaneous wheal tests
described above. The tests were carried out in a double blind fashion in
rotating system, so that each solution was used with equal frequency on
each of the blocked fingers. A total of for injections 1.0 ml per
injection, was done in each subject. One week later the procedure was
repeated in the same subjects using the remaining test solutions. This
method has been described by Dhuner et al. (1972) (for citation see Table
2 footnote 1). To measure the efficacy and duration of the blocks, the
individual fingers were pricked rapidly 10 times with a needle algesimete
and the number of painful pricks noted. Each finger was tested every five
minutes until complete recovery. The time of complete anesthesia has been
called "duration of anesthesia".
*i.e. the time from injection to complete analgesia?
**i.e. the number of successful anesthesias of total number of
anesthesias performed (no anesthesia is possible if the ulnar volar nerve
are not contacted by the anesthetic).

skin = experiment: Skin temperature measurements within intracutaneous wheals; format: in vivo, man
Method: The mean value of 6 wheals for each substance forms the basis for the values. The control values, however, represent the mean value obtained from 4 different sites measured outside the wheals 90 degrees apart and 2 centimeters from the wheal's center.
In the temperature measurements, an Oriel temperature apparatus* has been used. This is battery driven and is connected to a detector (diameter, 2.5 mm) and has an accuracy of ±0.1° C. The temperature of the skin is measured by pressing the detector against the skin with a pressure of 100 grams. It is retained against the skin until a constant temperature is obtained.
In Table 4, T1 is the measurement obtained at the center of the wheal, and T2 is the average of four measurements taken 90 degrees apart outside of the wheal and within 2 centimeters of the wheal's center.

pigs = experiment: Intracoronary administration in anesthetized pigs; format: in vivo, pig; conditions: intracoronary
Method: Eight pigs weighing around 50 kg were anesthetized with a continuous infusion of pentobarbital at 600 mg/h. Ventilation was established via a tracheotomy with 30% oxygen in nitrogen and normoventilation by a Siemens-Elema Servoventilator 900B. The following catheters were inserted after cutdown: Left ventricular, aortic, pulmonary arterial, great cardiac venous, left anterior descending coronary, arterial and central venous. […] The corresponding doses for bupivaciane were 0.25, 0.5, 1, 2 and 4 mg and for LEA 0.33, 0.66, 1.33, 2.66 and 5.33 mg. The injection rate was adjusted according to the preinjection coronary blood flow. Each series of drug injections was preceded by a placebo infusion. Total hemodynamic and electrocardiographic recovery was allowed between doses and there was a one hour resting period between drugs.
Central pressures, left ventricular dP/dT and a complete chest lead ECG were recorded continuously. Cardiac output and great cardiac venous blood flow were determined before and directly after each dose of the local anesthetic agent.

[4] = Force of contraction of guinea pig papillary muscle; format: cell-based; conditions: guinea pig, papillary muscle
Method: (§2) In order to initiate an investigation without the necessity to involve voltage-clamp of the calcium current, the preparations were subject to long depolarizing induced automaticity. If the cells are depolarized from about -50 to about -30 mV the automaticity is dependent on a transmembrane calcium current.
as §1, with “Guinea pig papillary muscle excised from the right ventricle were mounted in a single sucrose gap apparatus (Arlock & Katzune, 1985).” left out, “The Tris-Tyrode solution contained (mM): NaCl, 145; KCl, 4; CaCl2, 1.2; MgCl2, 1.05; glucose, 5.5 Tris maleate, 5.” left out
(§3) The force of contraction was measured with a strain gauge transducer before and after the addition of the test compounds to the medium. The percent reduction in maximum force of contraction from the control was calculated.

[5] = tested on: guinea pig papillary muscle; experiment: as above; format: cell-based; conditions: listed as LEA
Method: as §2
as §1, with “Guinea pig papillary muscle excised from the right ventricle were mounted in a single sucrose gap apparatus (Arlock & Katzune, 1985).” left out, “The Tris-Tyrode solution contained (mM): NaCl, 145; KCl, 4; CaCl2, 1.2; MgCl2, 1.05; glucose, 5.5 Tris maleate, 5.” left out
as §3

[6] = Anesthetic activity/potency comparison; format: in vivo; conditions: comparison within homologous series
tissue = experiment: Tissue toxicity limits (Trypan blue test, threshold of tissue irritancy); format: in vivo; conditions: in vivo
Source text: The toxicity of the homologous series of N-alkylpipecolic acid-2,6-xylidides increases step wise and quickly with the lengthening of the alkyl chain. This is manifest from Table 1 set forth below, which compares racemic mixtures of alkyl homologues having from 1 to 5 carbon atoms.
*Trypan blue test; Hoppe et al. (1950), 39, 147-151 "Use of Trypan Blue
and Rabbit Eye Tests For Irritation", J. Amer. Pharm. Assoc. (Scient.
Ed.), the values are approximate threshold values of tissue irritancy.

in vivo = conditions: mouse, iv, read-out: LD50 I.v. (intravenous)

## CCN(CC)CC(=O)Nc1c(C)cccc1C [Lidocaine, 2-diethylamino-2',6'-acetoxylidide]
Conscious rats; 14 umol/kg i.v. bolus
  Atrioventricular block, rats responding/total: 0/8
  Ventricular arrhythmias, rats responding/total: 0/8
Conscious rats; 20 umol/kg i.v. bolus
  Atrioventricular block, rats responding/total: 0/8
  Ventricular arrhythmias, rats responding/total: 0/8
Conscious rats; 28 umol/kg i.v. bolus
  Atrioventricular block, rats responding/total: 3/8
  Ventricular arrhythmias, rats responding/total: 0/8
Conscious rats; 40 umol/kg i.v. bolus
  Atrioventricular block, rats responding/total: 4/8
  Ventricular arrhythmias, rats responding/total: 2/8
Conscious rats; 56 umol/kg i.v. bolus
  Atrioventricular block, rats responding/total: 8/8
  Ventricular arrhythmias, rats responding/total: 1/8
Conscious rats; rat, in vivo
  potency to induce atrioventricular conduction disturbances: least potent
[1]; 10 uM
  block of channels; fast component not measurable: virtually all channels were blocked
[1]
  recovery to 90% of drug-blocked channels: 308 ms
  recovery from block: considerably faster
[1]; equimolar concentrations
  potency on cardiac sodium channels: lowest potency
[2]
  local anesthetic effect duration for epidural use: too short for epidural use

## CCCN1CCCC[C@H]1C(=O)Nc1c(C)cccc1C [3 L, L-N-n-propylpipecolic acid-2,6-xylidide]
[3]
  Analgesia-duration, intracutaneous wheals: 220 ± 23 min
Ulnar volar nerves; Concentration 0.25%
  Analgesia-duration, finger blockade: 739 ± 46 min
  Frequency (successful anesthesias of total performed): 6/7
  Time of onset, finger blockade: 12 ± 2 min
skin; Conc. 0.25%, HCl-salt, 10 minutes after injection
  Temperature Difference (T1 wheal vs T2 controls): -1.2 °C
skin; Conc. 0.25%, HCl-salt, 10 minutes after injection, mean of 6 wheals
  T1 Intracutaneous Wheal temperature: 30.0 °C
skin; comparison with lidocaine + adrenaline
  effect on temperature over the wheal: lowers the temperature over its wheal to approximately the same extent as the combination of lidocaine with adrenaline
pigs
  sudden cardiac collapse: not
[1]; 10^-4 M for a short period
  Vmax depression: very depressed
  attenuated excitability: no attenuated excitability could be detected
[1]; 10^-4 M, stimulus rate 1 Hz
  time to full recovery of Vmax: 20 min
[1]; 25 min. washout after 10^-4 M
  elimination from the tissue (washout): readily eliminated from the tissue
[1]
  recovery to 90% of drug-blocked channels: 2048 ms
[1]; listed as LEA
  recovery from block: recovers faster; also recorded: considerably faster
[4]
  inhibition at 5 µM: 13.8%
  inhibition at 10 µM: 9.6%
  inhibition at 100 µM: 8%
[5]
  effect on force of contraction/contractility: only moderately diminished; also recorded: very mild depressant actions
[6]
  anesthetic effect: optimal increase of anesthetic effects; also recorded: markedly superior

## CCN1CCCCC1C(=O)Nc1c(C)cccc1C (stereo not shown) [2 R, N--ethylpipecolic acid-2,6-xylidide]
tissue
  Tissue toxicity limits in %: 3.0%
In vivo
  LD50: 21 mg/kg
Ulnar volar nerves; Concentration 0.5%
  Analgesia-duration, finger blockade: 123 ± 19 min
  Frequency (successful anesthesias of total performed): 12/12
  Time of onset, finger blockade: 10 ± 1 min
